Results taken from PubChem BioAssay AID1919015 (Molecular Pharmacology Branch, DTP, NCI, 2023).

System: OVCAR-5 complex spheroids with HUVEC/MSC, viability, % test/control
Assay: Anticancer human tumor OVCAR-5 cell line growth inhibition [AhR];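 also: spheroids exposed to compounds for 7 days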;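 as to viability, T/C: 100% = DMSO vehicle control wells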
Conditions: for IC50: curve of first compound; for viability, T/C: stronger effect = lower value
Method in brief: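 Complex tumor spheroids co-cultured with HUVEC and human MSC stroma; AhR antagonists tested in combination with standard-of-care and investigational agents. Top concentration at or near clinical Cmax (else 10 microM), half-log dilutions; growth expressed as percent test/control.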

[1] = second compound 0.1 µM, first compound 0.0316 µM
[2] = second compound 0.1 µM, first compound 0.1 µM
[3] = second compound 0.1 µM, first compound 0.316 µM
[4] = second compound 0.1 µM, first compound 1 µM
[5] = second compound 0.1 µM, first compound 3.16 µM
[6] = second compound 0.1 µM, first compound 10 µM
[7] = second compound 0.316 µM, first compound 0.0316 µM
[8] = second compound 0.316 µM, first compound 0.1 µM
[9] = second compound 0.316 µM, first compound 0.316 µM
[10] = second compound 0.316 µM, first compound 1 µM
[11] = second compound 0.316 µM, first compound 3.16 µM
[12] = second compound 0.316 µM, first compound 10 µM
[13] = second compound 1 µM, first compound 0.0316 µM
[14] = second compound 1 µM, first compound 0.1 µM
[15] = second compound 1 µM, first compound 0.316 µM
[16] = second compound 1 µM, first compound 1 µM
[17] = second compound 1 µM, first compound 3.16 µM
[18] = second compound 1 µM, first compound 10 µM
[19] = second compound 3.16 µM, first compound 0.0316 µM
[20] = second compound 3.16 µM, first compound 0.1 µM
[21] = second compound 3.16 µM, first compound 0.316 µM
[22] = second compound 3.16 µM, first compound 1 µM
[23] = second compound 3.16 µM, first compound 3.16 µM
[24] = second compound 3.16 µM, first compound 10 µM
[25] = second compound 10 µM, first compound 0.0316 µM
[26] = second compound 10 µM, first compound 0.1 µM
[27] = second compound 10 µM, first compound 0.316 µM
[28] = second compound 10 µM, first compound 1 µM
[29] = second compound 10 µM, first compound 3.16 µM
[30] = second compound 10 µM, first compound 10 µM

**Q.** Which results are given for `Nc1ccccc1NC(=O)c1ccc(CNC(=O)OCc2cccnc2)cc1` + Cc1cncc(-c2nc(NCCc3c[nH]c4ccccc34)c3ncn(C(C)C)c3n2)c1?
**A.** IC50 (second compound 0.1 µM): 834 nM; IC50 (second compound 0.316 µM): 731 nM; IC50 (second compound 1 µM): 724 nM; IC50 (second compound 3.16 µM): 549 nM; IC50 (second compound 10 µM): < 31.6 nM; viability, T/C [1]: 86%; viability, T/C [2]: 84.7%; viability, T/C [3]: 69.5%; viability, T/C [4]: 47.4%; viability, T/C [5]: 19.9%; viability, T/C [6]: 9.54%; viability, T/C [7]: 86%; viability, T/C [8]: 79.5%; viability, T/C [9]: 66.8%; viability, T/C [10]: 44.3%; viability, T/C [11]: 20.1%; viability, T/C [12]: 7.96%; viability, T/C [13]: 80.4%; viability, T/C [14]: 77.2%; viability, T/C [15]: 68.8%; viability, T/C [16]: 42.8%; viability, T/C [17]: 16.6%; viability, T/C [18]: 7.92%; viability, T/C [19]: 71.2%; viability, T/C [20]: 71.4%; viability, T/C [21]: 62.7%; viability, T/C [22]: 36%; viability, T/C [23]: 13.5%; viability, T/C [24]: 6.41%; viability, T/C [25]: 10.4%; viability, T/C [26]: 10.3%; viability, T/C [27]: 13.1%; viability, T/C [28]: 14.3%; viability, T/C [29]: 2.83%; viability, T/C [30]: 0.51%

**Q.** Which results are given for `Nc1ccn(C2OC(CO)C(O)C2(F)F)c(=O)n1` (stereo not given) + Cc1cncc(-c2nc(NCCc3c[nH]c4ccccc34)c3ncn(C(C)C)c3n2)c1?
**A.** IC50 (second compound 0.1 µM): < 31.6 nM; IC50 (second compound 0.316 µM): < 31.6 nM; IC50 (second compound 1 µM): < 31.6 nM; IC50 (second compound 3.16 µM): < 31.6 nM; IC50 (second compound 10 µM): < 31.6 nM; viability, T/C [1]: 33.2%; viability, T/C [2]: 30.1%; viability, T/C [3]: 31.2%; viability, T/C [4]: 33%; viability, T/C [5]: 33%; viability, T/C [6]: 31.6%; viability, T/C [7]: 33.6%; viability, T/C [8]: 30.9%; viability, T/C [9]: 32%; viability, T/C [10]: 32%; viability, T/C [11]: 32.2%; viability, T/C [12]: 31.6%; viability, T/C [13]: 33.6%; viability, T/C [14]: 31.5%; viability, T/C [15]: 34.1%; viability, T/C [16]: 33%; viability, T/C [17]: 34.9%; viability, T/C [18]: 32%; viability, T/C [19]: 33.6%; viability, T/C [20]: 33.4%; viability, T/C [21]: 32%; viability, T/C [22]: 32.5%; viability, T/C [23]: 35%; viability, T/C [24]: 34.4%; viability, T/C [25]: 3.2%; viability, T/C [26]: 3.6%; viability, T/C [27]: 4.58%; viability, T/C [28]: 4.3%; viability, T/C [29]: 6.36%; viability, T/C [30]: 9.03%

**Q.** With `O=C(c1cc(Cc2n[nH]c(=O)c3ccccc23)ccc1F)N1CCN(C(=O)C2CC2)CC1` + Cc1cncc(-c2nc(NCCc3c[nH]c4ccccc34)c3ncn(C(C)C)c3n2)c1 as the molecule, how does the IC50 (second compound 0.1 µM) read?
**A.** > 10000 nM

**Q.** What about the IC50 (second compound 0.316 µM) of the same molecule?
**A.** > 10000 nM

**Q.** What about the IC50 (second compound 1 µM) of the same molecule?
**A.** > 10000 nM

**Q.** And the IC50 (second compound 3.16 µM)?
**A.** > 10000 nM

**Q.** What about the IC50 (second compound 10 µM) of the same molecule?
**A.** < 31.6 nM

**Q.** And the viability, T/C [1]?
**A.** 93.8%

**Q.** And the viability, T/C [2]?
**A.** 97.7%

**Q.** What about the viability, T/C [3] of the same molecule?
**A.** 93.7%

**Q.** What about the viability, T/C [4] of the same molecule?
**A.** 87.5%

**Q.** And the viability, T/C [5]?
**A.** 91.5%

**Q.** What about the viability, T/C [6] of the same molecule?
**A.** 86.8%

**Q.** And the viability, T/C [7]?
**A.** 93.9%

**Q.** And the viability, T/C [8]?
**A.** 98.7%

**Q.** And the viability, T/C [9]?
**A.** 95.4%

**Q.** What about the viability, T/C [10] of the same molecule?
**A.** 89.9%

**Q.** What about the viability, T/C [11] of the same molecule?
**A.** 84.3%

**Q.** And the viability, T/C [12]?
**A.** 83.7%

**Q.** What about the viability, T/C [13] of the same molecule?
**A.** 84.5%

**Q.** And the viability, T/C [14]?
**A.** 87.7%

**Q.** And the viability, T/C [15]?
**A.** 91.6%

**Q.** What about the viability, T/C [16] of the same molecule?
**A.** 87%

**Q.** What about the viability, T/C [17] of the same molecule?
**A.** 86.2%

**Q.** And the viability, T/C [18]?
**A.** 77.3%

**Q.** And the viability, T/C [19]?
**A.** 78.2%

**Q.** What about the viability, T/C [20] of the same molecule?
**A.** 77.8%

**Q.** What about the viability, T/C [21] of the same molecule?
**A.** 75.2%

**Q.** And the viability, T/C [22]?
**A.** 73.2%

**Q.** What about the viability, T/C [23] of the same molecule?
**A.** 71.8%

**Q.** And the viability, T/C [24]?
**A.** 64.8%

**Q.** What about the viability, T/C [25] of the same molecule?
**A.** 14.8%

**Q.** And the viability, T/C [26]?
**A.** 12.9%

**Q.** What about the viability, T/C [27] of the same molecule?
**A.** 15%

**Q.** And the viability, T/C [28]?
**A.** 12%

**Q.** What about the viability, T/C [29] of the same molecule?
**A.** 13.7%

**Q.** What about the viability, T/C [30] of the same molecule?
**A.** 13.1%
